Our source for the EC50 values is US20240083903A1, “ARYL ETHER COMPOUNDS AS TEAD MODULATORS” (Merck Sharp& Dohme LLC, priority 2021, published 2024).

One assay relates to TEAD Reporter-MCF7 cell line. The assay can be described thus: YAP/TEAD cellular activity assay: inhibition of TEAD-Luc activity in TEAD Reporter-MCF7 cell line. In kind it is cell-based, human. The settings on record: Homo sapiens, MCF7, 24 h, TEAD Reporter-MCF7 cells, 24 hours incubation with compound, luciferase readout. Here is the method:
YAP/TEAD Cellular Activity Assay
Quantitation of Compound Potency on the Inhibition of TEAD-Luc Activity in TEAD Reporter-MCF7 Cell Line.
The TEAD Reporter-MCF7 cell line containing the firefly luciferase gene under the control of TEAD responsive elements stably integrated into the human breast cancer cell line was purchased from BPS Bioscience (Cat #60618). The cells were cultured with complete culture medium ([…], 1 mM sodium pyruvate, 10% fetal bovine serum, 10 ng/mL insulin and 400 ug/mL G418 sulfate) prior to the assay. For the assay, the cells were harvested, resuspended in the complete culture medium without G418, and seeded into white solid bottom 384-well cell culture microplates in 25 uL with 10,000 cells per well. The plates were incubated at 37° C. in a CO2 incubator for 20-24 hours and the compounds were then transferred from Echo LDV plates directly into the 384-well white tissue culture plates with an Echo. The plates were incubated at 37° C. in a CO2 incubator for 24 hours and equal volume of ONE-Glo™ EX Luciferase reagent (Promega, Cat #E8150) was added. After mixing on a shaker at room temperature for 10 minutes, the luciferase activity was measured with an Envision. The percentage inhibition and EC50 values of compounds were calculated with Spotfire.
Required Materials • 1. TEAD reporter-MCF-7 Cells (BPS Bioscience, #60618) • 2. Complete Cell Culture Medium (without selection antibiotics) • EMEM 89% (ATCC, #30-2003) • FBS 10% (Hyclone, #SH30088.03) • 1% Non essential amino acids (Gibco, • 1 mM sodium pyruvate (Gibco, • Pen/Strep, 1% (Gibco, #15140-122) • 10 ng/mL insulin (Sigma, #10516) • 3. Complete Cell Culture Medium (with selection antibiotics) • EMEM 89% (ATCC, #30-2003) • F1% Non essential amino acids (Gibco, • 1 mM sodium pyruvate (Gibco, • BS 10% (Hyclone, #SH30088.03) • 10 ng/mL insulin (Sigma, #10516) • 400 ug/mL G418 sulfate (Agilent, #200049-21) • 4. Miscellaneous tissue culture equipment and reagents. • 5. White solid 384-well tissue culture plate (Greiner, Cat #781080) • 6. One Glo EX luciferase assay system (Promega, #E8150)
The following table tabulates the biological data disclosed for the current invention. The biological data was collected using the methodology described above. For each compound, TEAD-Luc EC50 values are listed in nanomolar (nM) concentration units.
For `CNS(=O)(=O)c1ccc(Oc2ccc(C(F)(F)F)cc2)c(-c2cn3c(n2)CCC3)c1` [1-1, 3-(6,7-Dihydro-5H-pyrrolo[1,2-a]imidazol-2-yl)-N-methyl-4-(4-(trifluoromethyl)phenoxy)benzenesulfonamide], the EC50 was 6 nM.

Consider `CNS(=O)(=O)c1ccc(Oc2ccc(C(F)(F)F)cc2)c(-c2cc3n(n2)CCC3)c1` [1-2, 3-(5,6-Dihydro-4H-pyrrolo[1,2-b]pyrazol-2-yl)-N-methyl-4-(4-(trifluoromethyl)phenoxy)benzenesulfonamide], for which the EC50 was 5.1 nM.

`CNS(=O)(=O)c1ccc(Oc2ccc(C(F)(F)F)cc2)c(-c2cn3c(n2)COCC3)c1` [1-3, 3-(5,6-Dihydro-8H-imidazo[2,1-c] [1,4]oxazin-2-yl)-N-methyl-4-(4-(trifluoromethyl)phenoxy)benzenesulfonamide]: the 50% effective concentration (EC50) is 36.2 nM.

For `CNS(=O)(=O)c1ccc(Oc2ccc(C(F)(F)F)cc2)c(-c2cnc3c(C)cccn23)c1` [1-4, N-Methyl-3-(8-methylimidazo[1,2-a]pyridin-3-yl)-4-(4-(trifluoromethyl)phenoxy)benzenesulfonamide], the EC50 was found to be 6030 nM.

As for `CNS(=O)(=O)c1ccc(Oc2ccc(C(F)(F)F)cc2)c(-c2cnn3c2CCC3)c1` [1-5, 3-(5,6-dihydro-4H-pyrrolo[1,2-b]pyrazol-3-yl)-N-methyl-4-[4-(trifluoromethyl)phenoxy]benzene-1-sulfonamide], the EC50 stood at 106 nM.

As to `CNS(=O)(=O)c1ccc(Oc2ccc(C(F)(F)F)cc2)c(-c2cnc3n2CCC3)c1` [1-6, 3-(6,7-dihydro-5H-pyrrolo[1,2-a]imidazol-3-yl)-N-methyl-4-[4-(trifluoromethyl)phenoxy]benzene-1-sulfonamide], the EC50 was determined as 3490 nM.

With `CNS(=O)(=O)c1ccc(Oc2ccc(C(F)(F)F)cc2)c(-c2ncc3cnccn23)c1` [1-7, 3-(imidazo[1,5-a]pyrazin-3-yl)-N-methyl-4-[4-(trifluoromethyl)phenoxy]benzene-1-sulfonamide], the EC50 came out at 5350 nM.

`CNS(=O)(=O)c1ccc(Oc2ccc(C(F)(F)F)cc2)c(-c2[nH]nc3ccccc23)c1` [1-8, 3-(2H-indazol-3-yl)-N-methyl-4-[4-(trifluoromethyl)phenoxy]benzene-1-sulfonamide]: the EC50 worked out at 2870 nM.

Regarding `CNS(=O)(=O)c1ccc(Oc2ccc(C(F)(F)F)cc2)c(-c2cn3c(n2)CCCC3)c1` [1-9, N-methyl-3-(5,6,7,8-tetrahydroimidazo [1,2-a]pyridin-2-yl)-4-[4-(trifluoromethyl)phenoxy]benzene-1-sulfonamide], the EC50 worked out at 12.8 nM.

Regarding `CNS(=O)(=O)c1ccc(Oc2ccc(C(F)(F)F)cc2)c(-c2nc3ncccn3n2)c1` [1-10, N-methyl-3-([1,2,4]triazolo[1,5-a]pyrimidin-2-yl)-4-[4-(trifluoromethyl)phenoxy]benzene-1-sulfonamide], the EC50 stood at 454 nM.

As to `CNS(=O)(=O)c1ccc(Oc2ccc(C(F)(F)F)cc2)c(-c2nc3cccnc3s2)c1` [1-11, N-methyl-3-([1,3]thiazolo[5,4-b]pyridin-2-yl)-4-[4-(trifluoromethyl)phenoxy]benzene-1-sulfonamide], the EC50 stood at 238 nM.

As for `CNS(=O)(=O)c1ccc(Oc2ccc(C(F)(F)F)cc2)c(-c2nc3cc(OC)ccc3[nH]2)c1` [1-12, 3-(5-methoxy-1H-benzimidazol-2-yl)-N-methy1-4-[4-(trifluoromethyl)phenoxy]benzene-1-sulfonamide], the EC50 turned out to be 5440 nM.

For `CNS(=O)(=O)c1ccc(Oc2ccc(C(F)(F)F)cc2)c(-c2nsc3ccccc23)c1` [1-13, 3-(1,2-benzothiazol-3-yl)-N-methyl-4-[4-(trifluoromethyl)phenoxy]benzene-1-sulfonamide], the EC50 was 414 nM.

With `CNS(=O)(=O)c1ccc(Oc2ccc(C(F)(F)F)cc2)c(-c2nc3c(s2)CNC3)c1` [1-14, 3-(5,6-dihydro-4H-pyrrolo[3,4-d] [1,3]thiazol-2-yl)-N-methyl-4-[4-(trifluoromethyl)phenoxy]benzene-1-sulfonamide], the EC50 was 2640 nM.

As for `CNS(=O)(=O)c1ccc(Oc2ccc(C(F)(F)F)cc2)c(-c2nc3cnccn3n2)c1` [1-15, N-methyl-3-([1,2,4]triazolo[1,5-a]pyrazin-2-yl)-4-[4-(trifluoromethyl)phenoxy]benzene-1-sulfonamide], the EC50 stood at 540 nM.

As to `CNS(=O)(=O)c1ccc(Oc2ccc(C(F)(F)F)cc2)c(-c2cc3c(s2)CCNC3)c1` [1-16, N-methyl-3-(4,5,6,7-tetrahydrothieno[3,2-c]pyridin-2-yl)-4-[4-(trifluoromethyl)phenoxy]benzene-1-sulfonamide], the EC50 was determined as 4020 nM.

For the compound `CNS(=O)(=O)c1ccc(Oc2ccc(C(F)(F)F)cc2)c(-c2nc3n(c2C#N)CCNC3)c1` [1-17, 3-(3-cyano-5,6,7,8-tetrahydroimidazo[1,2-a]pyrazin-2-yl)-N-methyl-4-[4-(trifluoromethyl)phenoxy]benzene-1-sulfonamide], the EC50 stood at 1070 nM.

The same assay, now with this note: TEAD Reporter-MCF7 cells, 24 hours incubation with compound, luciferase readout.
For `CNS(=O)(=O)c1ccc(Oc2ccc(C(F)(F)F)cc2)c(-c2cn3c(n2)OC(C)C3)c1` (single isomer, unassigned) [1-38, (R)- or (S)-N-methyl-3-(2-methyl-2,3-dihydroimidazo[2,1-b] [1,3]oxazol-6-yl)-4-[4-(trifluoromethyl)phenoxy]benzene-1-sulfonamide], the EC50 turned out to be 28.4 nM.

With `CNS(=O)(=O)c1ccc(Oc2ccc(C(F)(F)F)cc2)c(-c2cn3c(n2)OC(C)C3)c1` (single isomer, unassigned) [1-39, (S)- or (R)-N-methyl-3-(2-methyl-2,3-dihydroimidazo[2,1-b] [1,3]oxazol-6-yl)-4-[4-(trifluoromethyl)phenoxy]benzene-1-sulfonamide], the EC50 is 7.4 nM.

Consider `CNS(=O)(=O)c1ccc(Oc2ccc(C(F)(F)F)cc2)c(-c2cn3c(n2)CC(C)C3)c1` (single isomer, unassigned) [1-41, (R)- or (S)-N-methyl-3-(6-methyl-6,7-dihydro-5H-pyrrolo [1,2-a]imidazol-2-yl)-4-[4-(trifluoromethyl)phenoxy]benzene-1-sulfonamide], for which the EC50 turned out to be 26.1 nM.

Turning to `CNS(=O)(=O)c1ccc(Oc2ccc(C(F)(F)F)cc2)c(-c2cn3c(n2)CC(C)C3)c1` (single isomer, unassigned) [1-42, (S)- or (R)-N-methyl-3-(6-methyl-6,7-dihydro-5H-pyrrolo[1,2-a]imidazol-2-yl)-4-[4-(trifluoromethyl)phenoxy]benzene-1-sulfonamide], the EC50 worked out at 6.4 nM.

Take `CNS(=O)(=O)c1ccc(Oc2ccc(C(F)(F)F)cc2)c(-c2cn3c(n2)C(C)CC3)c1` (single isomer, unassigned) [1-43, (R)- or (S)-N-methyl-3-(7-methyl-6,7-dihydro-5H-pyrrolo[1,2-a]imidazol-2-yl)-4-[4-(trifluoromethyl)phenoxy]benzene-1-sulfonamide]: the EC50 was 8.1 nM.

`CNS(=O)(=O)c1ccc(Oc2ccc(C(F)(F)F)cc2)c(-c2cn3c(n2)C(C)CC3)c1` (single isomer, unassigned) [1-44, (S)- or (R)-N-methyl-3-(7-methyl-6,7-dihydro-5H-pyrrolo[1,2-a]imidazol-2-yl)-4-[4-(trifluoromethyl)phenoxy]benzene-1-sulfonamide]: the EC50 came to 33.6 nM.

The EC50 is the midpoint of the concentration-response curve.
